Legend:
[1] = SNALP particle diameter and polydispersity, Malvern Zetasizer; format: physicochemical; details: SNALP DSPC:Chol:PEG-C-DMA:Cationic Lipid 20:48:2:30 molar percent; mean of 3 experiments, error is standard deviation
Method: (§1) SNALP Preparation: SNALP with a lipid composition of DSPC:Chol:PEG-C-DMA:Cationic Lipid (20:48:2:30 molar percent) were prepared using the spontaneous vesicle formation by ethanol dilution method [Jeffs et al., Pharm. Res. In Press (2005)]. The sample's were diafiltered against 100 mL of PBS (20 wash volumes) using a cross flow ultrafiltration cartridge (Amersham Biosciences, Piscataway, N.J.) and sterile filtered through Acrodisc 0.2 μm Posidyne filters (Pall Corp., Ann Arbor, Mich.). The siRNA concentration of final samples was determined using the RiboGreen assay and a siRNA standard curve. Particle size and polydispersity was determined using a Malvern Instruments Zetasizer 3000HSA (Malvern, UK). Nucleic acid encapsulation was determined using a RiboGreen assay, comparing fluorescence in the presence and absence of Triton X-100. RiboGreen fluorescence was measured using a Varian Eclipse Spectrofluorometer (Varian Inc) with λex=500 nm, λem=525 nm.
(§2) This example sets forth the physical properties of the SNALP formulations described herein. SNALP containing the various cationic lipids were prepared as described and encapsulated RNA and particle size assessed (Table 1 below). […] Polydispersity of all formulations was low, indicating a narrow distribution of particle size. RNA encapsulation in the final particles was 84-85% of the total.
(§3) Percentage Encapsulation was determined using the RiboGreen fluorescence assay to measure the amount of encapsulated nucleic acid relative to the total nucleic acid present. Particle diameter and polydispersity was measured using a Malvern Zetasizer. Values are the mean of 3 separate experiments, the error is standard deviation.

[2] = Nucleic acid encapsulation in SNALP, RiboGreen fluorescence assay; format: physicochemical; details: SNALP DSPC:Chol:PEG-C-DMA:Cationic Lipid 20:48:2:30 molar percent, siRNA; mean of 3 experiments, error is standard deviation
Method: as §1, §2, §3

[3] = tested on: luciferase expression in Neuro2A-G cells (Neuro2A cells stably transfected to express luciferase); assay: In vitro transfection: luciferase gene silencing by SNALP encapsulating anti-luciferase siRNA; format: cell-based; details: for luciferase expression relative to untreated control: after 48 hours
Method: In vitro Transfection: Cells were cultured in MEM (Invitrogen) containing 10% fetal bovine serum (FBS) (CanSera) and 0.25 mg/mL G418 (Invitrogen). Neuro2A-G cells (Neuro2A cells stably transfected to express luciferase [R. E. Kingston. in Current Protocols in Molecular Biology, Vol. 2, pp. 9.1.4-9.1.9, John Wiley & Sons, Inc. (1997)]) were plated at a concentration of 4×10^4 cells per well in 24-well plates and grown overnight. Cells were treated with SNALP at doses of 0.0625-1.0 μg/mL nucleic acid (AntiLuc Active or Mismatch Control) and incubated for 48 hours at 37° C. and 5% CO2. Cells were then washed with PBS and lysed with 200 μL 250 mM sodium phosphate containing 0.1% Triton X-100. The luciferase activity for each well was determined using Luciferase Reagent (Promega) and a standard luciferase protein (Roche). The luminescence for each was measured using a Berthold MicroLumatPlus LB96V plate luminometer. The resulting luciferase activity was then normalized for the amount of protein using the Micro BCA assay kit (Pierce). Luciferase knockdown relative to a control was then determined for each system.
This example describes experiments comparing expression of nucleic acids following in vitro transfection of Neuro2A cells with SNALP comprising: (1) DODAC, DODMA, or DLinDMA; (2) PEG-C-DMA; and (3) an siRNA duplex directed against luciferase encapsulated in the SNALP (i.e., siRNA comprising the following sequence: […] (SEQ ID NO:1) and targeting the DNA sequence complementary to: […] (SEQ ID NO:3)). Neuro2A cells were stably transfected with a plasmid encoding luciferase under the control of the CMV promoter (pLO55). The stably transfected cells were then transfected with SNALP comprising: 15, 20, 25, 30, 35, or 40% of DODAC, DODMA, or DLinDMA; 2% PEG-C-DMA, and an siRNA duplex directed against luciferase encapsulated in the SNALP. Luciferase protein expression was measured 48 hours after transfection with SNALP.
The ability of SNALP containing each of the four cationic lipids (i.e., DSDMA, DODMA, DLinDMA, and DLenDMA) to effect gene silencing in stably transfected Neuro2A cells was evaluated. Neuro2A cells stably transfected to express the luciferase were treated with SNALP containing anti-luciferase siRNA for 48 hours. Gene-silencing efficiency was evaluated by comparing the remaining luciferase activity in these cells to that remaining in cells treated with control SNALP containing mismatch siRNA.

[4] = TNS assay, apparent pKa of cationic lipid incorporated in SNALP; details: TNS fluorescence, pH varied from 4.5 to 9.5
Method: TNS Assay: 20 μM of SNALP lipid and 6 μM of TNS were mixed in a fluorescence cuvette in 2 mL of 20 mM sodium phosphate, 25 mM citrate, 20 mM ammonium acetate and 150 mM NaCl, at a pH that was varied from 4.5 to 9.5. Fluorescence was determined at each pH using a Varian Eclipse Spectrofluorometer (Varian Inc) with settings of λex=322 nm, λem=431 nm. Fluorescence for each system at the various pH was then normalized to the value at pH 4.5. The pKa values are the point at which 50% of the molecules present are charged. By assuming that minimum fluorescence represents zero charge, and maximum fluorescence represents 100% charge, pKa can be estimated by measuring the pH at the point exactly half way between the values of minimum and maximum charge.
TNS is electrostatically attracted to positively charged membranes. Subsequent adsorption to the lipid membrane results in the immediate environment of the TNS becoming more lipophilic, removing the water molecules that otherwise quench TNS fluorescence. Since TNS is more readily absorbed by positively charged membranes, TNS fluorescence is an indicator of positive membrane surface charge. The surface pKa values of each SNALP formulation were determined by varying the local pH in the presence of TNS.

[5] = SNALP with anti-luciferase siRNA

Row | Structure (SMILES) | Diameter (nm) [1] [nm] | Polydispersity [1] | % Encapsulation [2] [%] | knockdown in gene expression (luciferase) versus control SNALP containing mismatch siRNA ([3]; Neuro2A cells stably expressing luciferase, SNALP with anti-luciferase siRNA, 48 hours) [%] | reduction of luciferase expression compared with SNALP comprising DODAC or DODMA ([3]; SNALP with 30% cationic lipid, 2% PEG-C-DMA, anti-luciferase siRNA, 48 hours after transfection) | luciferase expression relative to untreated control [3, 5] [%] | apparent (surface) pKa of cationic lipid in SNALP [4]
1 | CCCCC/C=C\C/C=C\CCCCCCCCOCC(CN(C)C)OCCCCCCCC/C=C\C/C=C\CCCCC (centres unmarked) [DLinDMA, 1,2-DiLinoleyloxy-N,N-dimethylaminopropane] | 140 ± 6 | 0.11 ± 0.02 | 84 ± 3 | 80 | more effective in reducing luciferase expression | 21 | 
2 | CCCCCCCCCCCCCCCCCC[N+](C)(C)CCCCCCCCCCCCCCCCCC [DODMA, dioctadecyldimethylammonium] | 137 ± 4 | 0.12 ± 0.01 | 84 ± 1 |  |  | 54 | 7.0

From US7745651B2, “Cationic lipids and methods of use” (Protiva Biotherapeutics, Inc., priority 2004, dated 2010)
